US8658000B2, “Preparation method of apigenin and dehydrosilybin mixture using radiation” (Korea Atomic Energy Research Institute, priority 2011, dated 2014)

Assays:
[1] = test system: colon carcinoma cell line (SW620); assay: EZ-Cytox cell viability assay, colon carcinoma cell line (SW620); type: cell-based; conditions: Homo sapiens, SW-620; SW620, 50 μg/mL, 24 h, non-treated = 100
[2] = test system: lung carcinoma cell line (A549); assay: EZ-Cytox cell viability assay, lung carcinoma cell line (A549); type: cell-based; conditions: Homo sapiens; A549, 50 μg/mL, 24 h, non-treated = 100
[3] = test system: colon carcinoma cell line (SW480); assay: EZ-Cytox cell viability assay, colon carcinoma cell line (SW480); type: cell-based; conditions: Homo sapiens; SW480, 50 μg/mL, 24 h, non-treated = 100
Description: (§1) To investigate the cancer cell inhibitory effect of the compounds of formulae 1 and 2 obtained by the preparation method according to the present invention, experiment was conducted. EZ-Cytox cell viability assay kit (Daeil Lab, Korea) was used to measure cancer cell growth inhibitory activity, and prostate carcinoma cell line (DU145), cervical carcinoma cell line (Hela), colon carcinoma cell line (SW480), and lung carcinoma cell line (H460) were used for cancer cells. All the cancer cells were incubated in 96-well plate at concentration of 5×10^4 cells/mL. After 24 h, dehydrosilybin compound of formula 1 and apigenin compound of formula 2 according to the present invention, and starting substance (i.e., silybin) as a control were treated at concentration of 50 μg/mL. After culturing at 37° C., 5% carbon dioxide environment, 24 h, 10 μL of kit solution was treated in each well. After 3 h of additional culturing, the optical absorbance was measured at 480 nm. The result is listed in Tables 3 to 6 and illustrated in FIGS. 2 to 7.

[4] = test system: cervical carcinoma cell line (Hela); assay: EZ-Cytox cell viability assay, cervical carcinoma cell line (Hela); type: cell-based; conditions: Homo sapiens, 50 μg/mL, 24 h, non-treated = 100
Description: as §1

[5] = test system: prostate carcinoma cell line (DU145); assay: EZ-Cytox cell viability assay, prostate carcinoma cell line (DU145); type: cell-based; conditions: Homo sapiens, DU-145; DU145, 50 μg/mL, 24 h, non-treated = 100
Description: as §1

[6] = test system: lung carcinoma cell line (H460); assay: EZ-Cytox cell viability assay, lung carcinoma cell line (H460); type: cell-based; conditions: Homo sapiens, NCI-H460; H460, 50 μg/mL, 24 h, non-treated = 100
Description: as §1

various cancers = conditions: background statement; cited from earlier work

| SMILES | viability at 50 µg/mL [1] | viability at 50 µg/mL [2] | viability at 50 µg/mL [3] | viability at 50 µg/mL [4] | viability at 50 µg/mL [5] | viability at 50 µg/mL [6] | concentration at which apigenin can effectively act (anticancer activity) (various cancers) |
| --- | --- | --- | --- | --- | --- | --- | --- |
| COc1cc(C2Oc3cc(-c4oc5cc(O)cc(O)c5c(=O)c4O)ccc3OC2CO)ccc1O (stereo not shown) [Compound of formula 1] | 27.8% | 58.9% | 41.7% | 21.1% | 40.4% | 66.3% | – |
| O=c1cc(-c2ccc(O)cc2)oc2cc(O)cc(O)c12 [Compound of formula 2, 5,7-dihydroxy-2-(4-hydroxyphenyl)-4H-chroman-4-one] | 39.4% | 72.1% | 49.2% | 38.7% | 51.6% | 97.4% | < 50 µM |
